Data from patent US20230292776A1, “GAS PHASE TREATMENT OF PRODUCE” (priority 2022, published 2023).

Assays:
[1] = test system: Colletotrichum gloeosporioides (Cg); experiment: Antifungal activity against Colletotrichum gloeosporioides (Cg) in wounded, infected avocados; assay type: in vivo; details: Example 9; avocados; vapor of 3 mL, 72 hour exposure
Method: Example 7. The antifungal activity of AITC and DADS vapor against Colletotrichum gloeosporioides (Cg) was tested in avocados. All test pieces were wounded by removing the stem and infected by dispensing 1000 Cg spores suspended in 10 μL of water into the wound. The test groups consisted of avocados that were: untreated and uninfected; untreated and infected; treated by dipping in a solution of 0.1 g/L of prochloraz; exposed to the vapor of 3 mL of AITC disposed in a Petri dish; and exposed to the vapor of 3 mL of DADS disposed in a Petri dish. FIG. 9 quantifies the infection results. AITC vapor reduced the incidence of Cg mold by 97% compared to the untreated test group and 70% compared to the prochloraz treated test group. DADS vapor reduced the incidence of Cg mold by 60% compared to the untreated test group.
Example 8. The antifungal activity of a range of DADS vapor exposure times was tested against Cg in avocados. All test pieces were wounded by removing the stem and infected by dispensing 1000 Cg spores suspended in 10 μL of water into the wound. The test groups consisted of avocados that were: infected and untreated; and exposed to the vapor of 3 mL of DADS in a Petri dish for 24 hours, 48 hours, and 72 hours. FIG. 10 quantifies the infection results. Test group exposed to DADS vapor at all exposure times reduced the incidence of Cg mold compared to the untreated test group. A 24 hour DADS exposure reduced the incidence of Cg mold by 8%. A 48 hour DADS exposure reduced the incidence of Cg mold by 25%. A 72 hour DADS exposure reduced the incidence of Cg mold by 57%.
(§1) Example 9. The antifungal activity of a range of AITC and carvacrol vapor exposure times was tested against Cg in avocados. To measure the effect of the various treatments on ripening, durometer shore was taken after 7 days of incubation at ambient temperature and high humidity. All samples were wounded by removing the stem and infected by dispensing 1000 Cg spores suspended in 10 μL of water in the wound. The test groups consisted of avocados that were: infected and left untreated on the benchtop; infected and left untreated under a fume hood; exposed to the vapor of 3 mL of AITC in a Petri dish for 24 hours, 48 hours, and 72 hours; and exposed to the vapor of 3 mL of carvacrol in a Petri dish for 72 hours. FIG. 11 quantifies the infection results. […] All exposure times to AITC vapor reduced the incidence of Cg mold compared to the untreated samples. A 24 hour AITC exposure reduced the incidence of Cg mold by 90%. A 48 hour AITC exposure reduced the incidence of Cg mold by 97%. A 72 hour AITC exposure reduced the incidence of Cg mold by 83%.
(§2) Example 10. The antifungal activity of a range of AITC vapor exposure times were tested against Cg in avocados. To measure the effect of the various treatments on ripening, durometer shore was taken after 6 days of incubation at ambient temperature and high humidity. All samples were wounded by removing the stem and infected by dispensing 1000 Cg spores suspended in 10 μL of water in each wound. The test groups consisted of avocados that were: infected and left untreated on the benchtop; infected and left untreated in a fume hood; exposed to the vapor of 3 mL of AITC in a Petri dish for 24 hours, 48 hours, and 72 hours. FIG. 13 quantifies the infection results. […] All exposure times to AITC vapor reduced the incidence of Cg mold compared to the untreated samples.
Example 21. The antifungal activity of avocados exposed to AITC vapor and prochloraz was tested against Cg in avocados. To measure the effect of the various treatments on ripening, durometer shore was taken after 5 days of incubation at ambient temperature (about 20° C. to about 25° C.) and high humidity (about 88% relative humidity to about 93% relative humidity). All samples were wounded by removing the stem and infected by dispensing 1000 Cg spores suspended in 10 μL of water in the wound. […]

[2] = test system: Penicillium digitatum (Pd); experiment: Antifungal activity of vapor against Penicillium digitatum (Pd) in wounded, infected mandarins; assay type: in vivo; details: after 6 days
avocados = experiment: Durometer shore (firmness, ripening) of treated avocados; assay type: in vivo, avocado; details: Example 21; Cg-infected avocados; AITC 125 μL 30 minutes; prochloraz 0.1 g/L dip; after 5 days
Method: as §1, §2
Example 21. The antifungal activity of avocados exposed to AITC vapor and prochloraz was tested against Cg in avocados. To measure the effect of the various treatments on ripening, durometer shore was taken after 5 days of incubation at ambient temperature (about 20° C. to about 25° C.) and high humidity (about 88% relative humidity to about 93% relative humidity). All samples were wounded by removing the stem and infected by dispensing 1000 Cg spores suspended in 10 μL of water in the wound. Exposure to vapor was done by placing the avocados in an airtight container, dispensing AITC onto Whatman filter paper discs, suspending the discs in front of a battery-powered fan, closing the container and incubating the avocados for 30 minutes. After vapor exposure, the avocados were left at ambient temperature, high humidity, and assessed for Cg mold on day 5. Treatment groups consisted of avocados that were: exposed for 30 minutes to the vapor of 125 μL of AITC disposed on a filter paper disc; dipped in a solution of 0.1 g/L of prochloraz and placed to dry on a rack in front of a fan for 30 min; infected and left untreated; and uninfected and untreated. […] To prepare the 0.1 g/L of prochloraz, 10 mg of prochloraz was mixed with 10 mL of ethanol and 90 mL of water. […] A 24 hour AITC exposure reduced the incidence of Cg mold by 90%. […] The mean shore value for the untreated avocados was 28.8 (standard deviation (SD)=10.8). The mean shore value for the infected avocados was 47.3 (SD=11.8). The mean shore value of the positive control, prochloraz treated avocados was 44.3 (SD=14.7). The mean shore value of the AITC treated avocados was 61.1 (SD=10.5).
Durometer Shore Measurement: A Fruit Hardness Tester— HPE III Fff w/Sphere Ø 5.0 mm Test Anvil is used for the measurements. The Operating Procedure is as follows: • 1) At room temperature and 1 atm pressure, switch on the measuring device and press the hull or sleeve against the specimen so that the contact surface of the pressure plate rests on the fruit. […]

Cc1ccc(C(C)C)cc1O [carvacrol]
reduction of the incidence of Cg mold [1]: did not reduce the incidence of Cg mold

C=CCc1ccc(O)c(OC)c1 [eugenol]
performance against Pd versus the untreated samples ([2]; Example 19, mandarins, 62.5 μL AITC and/or 125 μL of all other compounds, 30 minutes): performed better than the untreated samples

C=CCOC(Cn1ccnc1)c1ccc(Cl)cc1Cl (stereo not shown) [imazalil, reference compound]
infected mandarins ([2]; Example 6, treated with 1 g/L, fruit of poor quality with latent infection): 83.3%

CCCN(CCOc1c(Cl)cc(Cl)cc1Cl)C(=O)n1ccnc1 [prochloraz, reference compound]
mean shore value (avocados): 44.3 (SD=14.7)
